How the values were obtained:
Format in all cases: biochemical
off target [1] = experiment: FKBP51 AlphaScreen, Target #3
Procedure: (§1) Metal salt solutions for the metal ion interference set (MIIS) were prepared as 10 mM stock solutions in DMSO (see Table 3). All metal salts used have been purchased at highest industrial grade.

off target [2] = experiment: KRAS AlphaScreen, Target #3
Procedure: as §1

off-target [3] = experiment: MDM2 AlphaScreen, Target #2
Procedure: as §1

off target [4] = experiment: MDM2 AlphaScreen, Target #3
Procedure: as §1

SOS1 [5] = molecular target: T1, SOS1 (Homo sapiens, UniProt Q07889); experiment: SOS1 AlphaScreen, Target #1
T1 sequence (Q07889 1-1333): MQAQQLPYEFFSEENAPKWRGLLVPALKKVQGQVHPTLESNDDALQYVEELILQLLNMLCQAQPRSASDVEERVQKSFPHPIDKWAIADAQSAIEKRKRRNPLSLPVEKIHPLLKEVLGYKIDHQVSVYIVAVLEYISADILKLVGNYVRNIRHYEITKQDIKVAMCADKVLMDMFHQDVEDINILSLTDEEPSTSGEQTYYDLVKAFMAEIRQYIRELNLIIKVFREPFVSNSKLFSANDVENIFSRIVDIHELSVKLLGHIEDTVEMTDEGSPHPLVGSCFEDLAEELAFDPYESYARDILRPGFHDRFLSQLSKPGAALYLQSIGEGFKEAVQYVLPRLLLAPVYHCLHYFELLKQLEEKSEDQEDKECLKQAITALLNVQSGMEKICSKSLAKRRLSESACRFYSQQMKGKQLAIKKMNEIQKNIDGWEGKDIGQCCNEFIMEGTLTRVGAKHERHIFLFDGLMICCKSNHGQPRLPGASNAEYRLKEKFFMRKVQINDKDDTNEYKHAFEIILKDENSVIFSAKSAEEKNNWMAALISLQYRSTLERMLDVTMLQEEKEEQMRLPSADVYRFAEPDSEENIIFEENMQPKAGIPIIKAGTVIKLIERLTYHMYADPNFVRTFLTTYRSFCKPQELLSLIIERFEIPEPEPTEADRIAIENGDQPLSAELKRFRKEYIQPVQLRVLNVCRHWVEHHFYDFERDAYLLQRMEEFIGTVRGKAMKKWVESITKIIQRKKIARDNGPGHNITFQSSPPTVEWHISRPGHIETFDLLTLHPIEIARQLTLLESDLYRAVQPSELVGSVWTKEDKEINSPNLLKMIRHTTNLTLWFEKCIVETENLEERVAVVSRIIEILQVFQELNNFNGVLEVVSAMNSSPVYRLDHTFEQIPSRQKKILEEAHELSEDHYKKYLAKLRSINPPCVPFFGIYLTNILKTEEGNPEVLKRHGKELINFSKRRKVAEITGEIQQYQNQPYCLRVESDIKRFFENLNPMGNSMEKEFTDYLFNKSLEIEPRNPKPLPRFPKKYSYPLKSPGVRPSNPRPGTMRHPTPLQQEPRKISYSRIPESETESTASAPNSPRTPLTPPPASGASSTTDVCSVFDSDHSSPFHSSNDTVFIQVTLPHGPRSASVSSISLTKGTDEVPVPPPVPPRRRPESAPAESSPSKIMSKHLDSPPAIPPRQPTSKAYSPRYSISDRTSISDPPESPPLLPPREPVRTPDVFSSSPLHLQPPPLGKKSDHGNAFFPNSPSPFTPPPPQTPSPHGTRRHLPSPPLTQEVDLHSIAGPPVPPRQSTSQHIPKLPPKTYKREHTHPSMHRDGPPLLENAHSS
Procedure: as §1

off-target [6] = experiment: SOS1 AlphaScreen, Target #2
Procedure: as §1

WRN (ext.) = WRN (ext.) (Homo sapiens, UniProt Q14191); experiment: WRN ADP-Glo, Target #2
Procedure: as §1

off target (ext.) = experiment: WRN ADP-Glo, Target #4
Procedure: as §1

BCL6 = BCL6 (Homo sapiens, UniProt P41182); experiment: BCL6 Fluorescence Polarization; conditions: read-out: Target #1 IC50
Procedure: as §1

beta-Catenin = molecular target: T2, beta-Catenin (Homo sapiens, UniProt P35222); experiment: beta-Catenin TR-FRET; conditions: read-out: Target #1 IC50
T2 sequence (P35222 1-781): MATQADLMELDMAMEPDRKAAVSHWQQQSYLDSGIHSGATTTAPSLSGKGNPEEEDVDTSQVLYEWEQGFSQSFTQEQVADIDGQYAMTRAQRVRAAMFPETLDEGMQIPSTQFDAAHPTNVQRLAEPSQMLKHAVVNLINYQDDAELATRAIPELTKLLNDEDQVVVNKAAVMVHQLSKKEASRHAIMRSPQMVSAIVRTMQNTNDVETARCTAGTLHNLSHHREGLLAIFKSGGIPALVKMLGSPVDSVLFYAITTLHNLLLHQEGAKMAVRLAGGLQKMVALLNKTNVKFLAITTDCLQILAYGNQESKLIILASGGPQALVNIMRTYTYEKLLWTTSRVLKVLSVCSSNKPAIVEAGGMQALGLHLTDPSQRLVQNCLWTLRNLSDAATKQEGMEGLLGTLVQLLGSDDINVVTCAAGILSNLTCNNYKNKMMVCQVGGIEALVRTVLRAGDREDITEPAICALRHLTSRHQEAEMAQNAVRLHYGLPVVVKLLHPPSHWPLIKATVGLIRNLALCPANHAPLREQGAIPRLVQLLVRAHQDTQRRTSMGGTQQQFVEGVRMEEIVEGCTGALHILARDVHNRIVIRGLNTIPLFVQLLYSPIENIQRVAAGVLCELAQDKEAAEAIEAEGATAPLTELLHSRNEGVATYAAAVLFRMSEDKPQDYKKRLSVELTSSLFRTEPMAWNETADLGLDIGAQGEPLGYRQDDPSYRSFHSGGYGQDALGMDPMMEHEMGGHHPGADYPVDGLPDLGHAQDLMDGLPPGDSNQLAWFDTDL
Procedure: as §1

SOS1 [7] = molecular target: T1, SOS1; experiment: SOS1 TR-FRET; conditions: read-out: Target #1 IC50
Procedure: as §1

KRAS = KRAS (Homo sapiens, UniProt P01116); experiment: KRAS TR-FRET (MIIS list); conditions: read-out: Target #1 IC50
Procedure: as §1

LSD1 = LSD1 (Homo sapiens, UniProt O60341); experiment: LSD1 DELFIA; conditions: read-out: Target #1 IC50
Procedure: as §1

EGFR = EGFR (Homo sapiens, UniProt P00533); experiment: EGFR MALDI; conditions: read-out: Target #1 IC50
Procedure: as §1

Sequence of WRN (ext.) (Q14191 whole entry, species assumed): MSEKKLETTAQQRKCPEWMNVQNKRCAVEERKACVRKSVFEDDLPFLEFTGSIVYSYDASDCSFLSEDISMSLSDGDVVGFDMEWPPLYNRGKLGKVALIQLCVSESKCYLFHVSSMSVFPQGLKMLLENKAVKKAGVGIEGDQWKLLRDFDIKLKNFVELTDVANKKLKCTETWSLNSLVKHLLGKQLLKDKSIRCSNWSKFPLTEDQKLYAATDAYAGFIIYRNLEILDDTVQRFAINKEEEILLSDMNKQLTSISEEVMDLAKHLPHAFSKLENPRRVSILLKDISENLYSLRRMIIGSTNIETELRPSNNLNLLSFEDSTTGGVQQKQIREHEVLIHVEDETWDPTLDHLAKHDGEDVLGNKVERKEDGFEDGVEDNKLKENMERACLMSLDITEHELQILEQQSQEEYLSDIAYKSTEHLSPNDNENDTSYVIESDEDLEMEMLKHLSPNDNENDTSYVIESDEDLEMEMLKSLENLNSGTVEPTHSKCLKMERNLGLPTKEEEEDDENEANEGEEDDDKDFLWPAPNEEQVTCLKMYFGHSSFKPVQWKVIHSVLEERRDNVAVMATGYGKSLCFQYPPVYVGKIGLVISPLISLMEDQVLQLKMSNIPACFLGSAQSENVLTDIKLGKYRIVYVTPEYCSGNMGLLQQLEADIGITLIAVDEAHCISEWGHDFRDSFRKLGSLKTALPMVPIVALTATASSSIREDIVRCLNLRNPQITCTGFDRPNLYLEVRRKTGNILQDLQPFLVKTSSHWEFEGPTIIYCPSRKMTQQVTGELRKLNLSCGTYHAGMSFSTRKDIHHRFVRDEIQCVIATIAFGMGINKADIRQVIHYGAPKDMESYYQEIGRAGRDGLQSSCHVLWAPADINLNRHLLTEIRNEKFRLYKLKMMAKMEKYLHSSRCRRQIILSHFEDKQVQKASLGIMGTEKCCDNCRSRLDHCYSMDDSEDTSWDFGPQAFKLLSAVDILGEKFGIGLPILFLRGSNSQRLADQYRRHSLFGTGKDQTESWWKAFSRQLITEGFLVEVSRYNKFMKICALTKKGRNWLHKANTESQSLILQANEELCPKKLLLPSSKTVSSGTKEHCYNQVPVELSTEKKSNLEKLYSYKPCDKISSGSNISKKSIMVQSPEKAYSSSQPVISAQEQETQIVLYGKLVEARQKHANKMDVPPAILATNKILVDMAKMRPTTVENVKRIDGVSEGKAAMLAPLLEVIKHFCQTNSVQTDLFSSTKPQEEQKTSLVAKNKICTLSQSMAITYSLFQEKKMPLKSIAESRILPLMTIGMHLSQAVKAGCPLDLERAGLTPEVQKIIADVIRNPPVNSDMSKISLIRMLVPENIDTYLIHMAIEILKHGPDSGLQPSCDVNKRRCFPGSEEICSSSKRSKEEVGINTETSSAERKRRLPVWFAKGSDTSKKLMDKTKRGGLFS
Sequence of EGFR (P00533 25-1210, species assumed): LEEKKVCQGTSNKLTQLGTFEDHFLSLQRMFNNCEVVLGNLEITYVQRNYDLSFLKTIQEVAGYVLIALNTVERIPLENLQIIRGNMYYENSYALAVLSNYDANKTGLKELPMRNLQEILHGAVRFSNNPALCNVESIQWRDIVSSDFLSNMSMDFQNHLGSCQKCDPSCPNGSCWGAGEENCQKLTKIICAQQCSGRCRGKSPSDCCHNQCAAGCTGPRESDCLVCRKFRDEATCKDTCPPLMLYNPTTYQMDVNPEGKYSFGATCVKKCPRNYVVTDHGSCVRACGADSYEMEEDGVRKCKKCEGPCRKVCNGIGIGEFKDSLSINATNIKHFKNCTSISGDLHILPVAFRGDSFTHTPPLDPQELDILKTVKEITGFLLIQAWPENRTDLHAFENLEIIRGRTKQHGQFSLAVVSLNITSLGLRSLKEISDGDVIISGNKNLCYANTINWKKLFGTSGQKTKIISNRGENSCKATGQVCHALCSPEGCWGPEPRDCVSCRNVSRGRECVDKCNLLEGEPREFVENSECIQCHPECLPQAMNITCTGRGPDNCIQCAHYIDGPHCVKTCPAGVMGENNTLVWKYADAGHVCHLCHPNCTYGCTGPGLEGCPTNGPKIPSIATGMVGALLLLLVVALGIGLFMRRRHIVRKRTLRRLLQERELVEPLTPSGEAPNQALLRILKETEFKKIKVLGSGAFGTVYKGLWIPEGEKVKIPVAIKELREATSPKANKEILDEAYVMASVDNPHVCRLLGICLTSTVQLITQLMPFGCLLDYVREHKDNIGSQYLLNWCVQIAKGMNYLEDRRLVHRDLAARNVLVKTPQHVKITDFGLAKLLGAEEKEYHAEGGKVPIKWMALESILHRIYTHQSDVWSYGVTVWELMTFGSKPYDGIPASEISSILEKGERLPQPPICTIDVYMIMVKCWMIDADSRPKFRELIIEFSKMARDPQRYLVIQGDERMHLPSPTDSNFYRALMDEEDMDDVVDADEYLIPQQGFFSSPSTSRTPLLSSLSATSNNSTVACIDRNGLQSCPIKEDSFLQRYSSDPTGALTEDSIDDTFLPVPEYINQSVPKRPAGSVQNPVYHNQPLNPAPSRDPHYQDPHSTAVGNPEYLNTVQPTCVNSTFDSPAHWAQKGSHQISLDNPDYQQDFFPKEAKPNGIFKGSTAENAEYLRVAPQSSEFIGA
Sequence of KRAS (P01116 1-188 isoform P01116-2): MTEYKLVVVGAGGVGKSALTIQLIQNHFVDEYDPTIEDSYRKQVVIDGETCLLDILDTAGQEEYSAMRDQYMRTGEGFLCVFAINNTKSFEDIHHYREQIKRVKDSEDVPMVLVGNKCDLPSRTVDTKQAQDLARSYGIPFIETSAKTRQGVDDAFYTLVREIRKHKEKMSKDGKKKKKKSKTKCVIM

| Compound | IC50 (off target [1]) [µM] | IC50 (off target [2]) [µM] | IC50 (off-target [3]) [µM] | IC50 (off target [4]) [µM] | IC50 (SOS1 [5]) [µM] | IC50 (off-target [6]) [µM] | IC50 (WRN (ext.)) [µM] | IC50 (off target (ext.)) [µM] | IC50 (BCL6) [µM] | IC50 (beta-Catenin) [µM] | IC50 (SOS1 [7]) [µM] | IC50 (KRAS) [µM] | IC50 (LSD1) [µM] | IC50 (EGFR) [µM] |
| --- | --- | --- | --- | --- | --- | --- | --- | --- | --- | --- | --- | --- | --- | --- |
| CC(=O)[O-].[Ag+] [Ag (CH 3COO), Silver acetate] | > 10 | > 10 | > 10 | > 10 | < 1 | > 10 | > 10 | > 10 | > 10 | < 1 | < 1 | < 1 | 1 to 10 | > 10 |
| O=[N+]([O-])[O-].O=[N+]([O-])[O-].O=[N+]([O-])[O-].[Al+3] [Al(NO3)3, Aluminum nitrate] | > 10 | > 10 | > 10 | > 10 | > 10 | > 10 | > 10 | > 10 | > 10 | > 10 | > 10 |  | 1 to 10 | > 10 |
| [Cl][Au]([Cl])[Cl] [AuCl3, Gold(III) chloride] | > 10 | > 10 | > 10 | > 10 | < 1 | > 10 | 1 to 10 | > 10 | > 10 | < 1 | < 1 | < 1 | 1 to 10 | > 10 |
| [Cl-].[Cl-].[Co+2] [CoCl2, Cobalt(II) chloride] | > 10 | > 10 | > 10 | > 10 | > 10 | > 10 | > 10 | > 10 | > 10 | > 10 | > 10 |  |  | > 10 |
| [Cl][Cu][Cl] [CuCl2, Copper(II) chloride] | > 10 | > 10 | > 10 | > 10 | 1 to 10 | > 10 | 1 to 10 | > 10 | > 10 | > 10 | > 10 |  | > 10 | > 10 |
| [Cl][Fe][Cl] [FeCl2, Iron(II) chloride] | > 10 | > 10 |  | > 10 | > 10 | > 10 | > 10 | > 10 | > 10 | > 10 | 1 to 10 |  | > 10 | > 10 |
| [Cl][Fe]([Cl])[Cl] [FeCl3, Iron(III) chloride] | > 10 | > 10 | > 10 | > 10 | > 10 | > 10 | > 10 | > 10 | > 10 | > 10 | 1 to 10 |  | > 10 | > 10 |
| [Cl-].[Cl-].[Mg+2] [MgCl2, Magnesium chloride] | > 10 | > 10 | > 10 | > 10 | > 10 | > 10 | > 10 | > 10 | > 10 | > 10 | > 10 |  | > 10 | > 10 |
| [Cl][Mn][Cl] [MnCl2, Manganese(II) chloride] | > 10 | > 10 | > 10 | > 10 | > 10 | > 10 | > 10 | > 10 | > 10 | > 10 | > 10 |  | > 10 | > 10 |
| [Cl][Ni][Cl] [NiCl2, Nickel(II) chloride] | > 10 | > 10 | > 10 | > 10 | > 10 | > 10 | > 10 | > 10 | > 10 | > 10 | > 10 |  | 1 to 10 | > 10 |
| [Cl][Pd][Cl] [PdCl2, Palladium(II) chloride] | > 10 | > 10 | > 10 | > 10 | < 1 | > 10 | 1 to 10 | > 10 | > 10 | > 10 | 1 to 10 |  | 1 to 10 | > 10 |
| [Cl][Sn][Cl] [SnCl2, Tin(II) chloride] | > 10 | > 10 | > 10 | > 10 | > 10 | > 10 | > 10 | > 10 | > 10 | > 10 | 1 to 10 |  | > 10 | > 10 |
| [Cl-].[Cl-].[Zn+2] [ZnCl2, Zinc(II) chloride] | > 10 | > 10 | > 10 | > 10 | > 10 | > 10 | > 10 | > 10 | > 10 | > 10 | > 10 |  | > 10 | > 10 |
